{"source": "patent US20060046968A1", "about": "“Prodrug substituted benzoxazoles as estrogenic agents” (priority 2004, published 2006)", "assay_type_in_all_cases": "in vivo", "key": {"Male HLA-B27 rats [1]": {"test_system": "Male HLA-B27 rats", "test": "HLA-B27 rat test for inflammatory bowel disease: histological scoring of colon", "conditions": "for Fibrosis (0-2) / Inflammation (0-3) / Lesion depth (0-2) / Total score / Ulceration (0-2): colon histology", "protocol": "Representative metabolites of compounds of the invention were evaluated in the HLA rat standard pharmacological test procedure, which emulates inflammatory bowel disease in humans. The following briefly describes the procedure used and results obtained. […] Louis) and water. Stool quality was observed daily and graded according to the following scale: Diarrhea=3; soft stool=2; normal stool=1. At the end of the study, serum was collected and stored at −70° C. A section of colon was prepared for histological analysis and an additional segment was analyzed for myeloperoxidase activity. In Study A, rats (22-26 weeks old) were dosed subcutaneously once per day for seven days with one of the regimens listed below. […] Histological analysis. Colonic tissue was immersed in 10% neutral buffered formalin. Each specimen of colon was separated into four samples for evaluation. The formalin-fixed tissues were processed in a Tissue-Tek® vaccum infiltration processor (Miles, Inc; West Haven, Conn.) for paraffin embedding. The samples were sectioned at 5 μm and then stained with hematoxylin and eosin (H&E) for blinded histological evaluations using a scale modified after Boughton-Smith. After the scores were completed, the samples were unblinded, and data were tabulated and analyzed by ANOVA linear modeling with multiple mean comparisons. Sections of colonic tissue were evaluated for several disease indicators and given relative scores."}, "Lewis rats": {"test_system": "Lewis rats", "test": "Lewis rat adjuvant-induced arthritis, treatment protocol: joint score (maximal score per day 12)", "conditions": "s.c. daily, begun Day 8 after adjuvant"}, "Male HLA-B27 rats [2]": {"test_system": "Male HLA-B27 rats", "test": "HLA-B27 rat model of arthritis: joint scores", "conditions": "Study 1, oral 20 mg/kg once per day (10 mg/kg earlier)"}, "Male HLA-B27 rats [3]": {"test_system": "Male HLA-B27 rats", "test": "HLA-B27 rat model of arthritis: joint histology", "conditions": "Study 1; oral 46 days; 10 mg/kg days 1-24, then 20 mg/kg", "protocol": "At the end of the study, the rats are euthanized with CO2, hindlimbs removed at necropsy and fixed in 10% buffered formalin, and the tarsal joints decalcified and embedded in paraffin. Histologic sections are stained with Hematoxylin and Eosin or […] Green stain. Slides are coded so that the examiner is blinded to the treatment groups. Synovial tissue from tarsal joints is evaluated based on synovial hyperplasia, inflammatory cell infiltration, and pannus formation [Poole and Coombs, International Archives of Allergy & Applied Immunology 54: 97-113 (1977)], as outlined below. [table] […] [table] Representative metabolites of compounds of the invention were evaluated in the HLA-B27 rat standard pharmacological test procedure, which emulates arthritis in humans. The following briefly describes the procedure used and results obtained. Male HLA-B27 rats were obtained from Taconic and provided unrestricted access to a food (PMI® LabDiet 5001) and water. Joint scores and histology were evaluated as described above for the Lewis rat model of adjuvant-induced arthritis. Study 1: […]"}, "[4]": {"conditions": "Study C, oral 7 weeks, 10 mg/kg days 1-24, then 20 mg/kg"}}, "note": "Marks after values point to notes of the source that are not given here."}
{"molecule": "C=Cc1cc(O)cc2nc(-c3ccc(O)c(F)c3)oc12", "note": "[Example 24, 2-(3-FLUORO-4-HYDROXYPH ENYL)-7-VI NYL-1,3-BENZOXAZOL-5-OL]", "values": [{"measurement": "Fibrosis (0-2), mean ± SD", "setting": "Male HLA-B27 rats [1]; [4]", "value": "0*"}, {"measurement": "Inflammation (0-3), mean ± SD", "setting": "Male HLA-B27 rats [1]; [4]", "value": "0.69 ± 0.24"}, {"measurement": "Lesion depth (0-2), mean ± SD", "setting": "Male HLA-B27 rats [1]; [4]", "value": "0*"}, {"measurement": "Total score, mean ± SD", "setting": "Male HLA-B27 rats [1]; [4]", "value": "0.69 ± 0.24"}, {"measurement": "Ulceration (0-2), mean ± SD", "setting": "Male HLA-B27 rats [1]; [4]", "value": "0*"}, {"measurement": "Fibrosis (0-2)", "setting": "Male HLA-B27 rats [1]; 1 mg/kg s.c., second study", "value": 0.75}, {"measurement": "Inflammation (0-3)", "setting": "Male HLA-B27 rats [1]; 1 mg/kg s.c., second study", "value": "1.63*"}, {"measurement": "Lesion depth (0-2)", "setting": "Male HLA-B27 rats [1]; 1 mg/kg s.c., second study", "value": "0.88*"}, {"measurement": "Total score", "setting": "Male HLA-B27 rats [1]; 1 mg/kg s.c., second study", "value": "4.4*"}, {"measurement": "Ulceration (0-2)", "setting": "Male HLA-B27 rats [1]; 1 mg/kg s.c., second study", "value": 1.25}, {"measurement": "Fibrosis (0-2)", "setting": "Male HLA-B27 rats [1]; 10 mg/kg s.c., second study", "value": "0.50*"}, {"measurement": "Inflammation (0-3)", "setting": "Male HLA-B27 rats [1]; 10 mg/kg s.c., second study", "value": "1.63*"}, {"measurement": "Lesion depth (0-2)", "setting": "Male HLA-B27 rats [1]; 10 mg/kg s.c., second study", "value": "0.69*"}, {"measurement": "Total score", "setting": "Male HLA-B27 rats [1]; 10 mg/kg s.c., second study", "value": "3.6*"}, {"measurement": "Ulceration (0-2)", "setting": "Male HLA-B27 rats [1]; 10 mg/kg s.c., second study", "value": "0.81*"}, {"measurement": "Fibrosis (0-2)", "setting": "Male HLA-B27 rats [1]; 50 mg/kg s.c.", "value": "0*"}, {"measurement": "Inflammation (0-3)", "setting": "Male HLA-B27 rats [1]; 50 mg/kg s.c.", "value": "1.05*#"}, {"measurement": "Lesion depth (0-2)", "setting": "Male HLA-B27 rats [1]; 50 mg/kg s.c.", "value": "0.2#"}, {"measurement": "Total score", "setting": "Male HLA-B27 rats [1]; 50 mg/kg s.c.", "value": "1.5*#"}, {"measurement": "Ulceration (0-2)", "setting": "Male HLA-B27 rats [1]; 50 mg/kg s.c.", "value": "0.25*#"}, {"measurement": "Measurements of tissue injury, colon histology", "setting": "Male HLA-B27 rats [1]; composite of two subcutaneous dosing studies", "value": "effective in reducing several measurements of tissue injury"}, {"measurement": "Joint inflammation score", "setting": "Lewis rats; table Day 1", "value": 11.33}, {"measurement": "Joint inflammation score", "setting": "Lewis rats; table Day 2", "value": 11.15}, {"measurement": "Joint inflammation score", "setting": "Lewis rats; table Day 3", "value": 11.33}, {"measurement": "Joint inflammation score", "setting": "Lewis rats; table Day 4", "value": 9.50}, {"measurement": "Joint inflammation score", "setting": "Lewis rats; table Day 5", "value": 8.00}, {"measurement": "Joint inflammation score", "setting": "Lewis rats; table Day 6", "value": 7.00}, {"measurement": "Joint inflammation score", "setting": "Lewis rats; table Day 7", "value": 5.83}, {"measurement": "Joint inflammation score", "setting": "Lewis rats; table Day 8", "value": 4.83}, {"measurement": "Joint inflammation score", "setting": "Lewis rats; table Day 9", "value": 3.50}, {"measurement": "Joint inflammation score", "setting": "Lewis rats; table Day 10", "value": 3.83}, {"measurement": "Joint inflammation score", "setting": "Lewis rats; table Day 11", "value": 3.83}, {"measurement": "Joint inflammation score", "setting": "Lewis rats; table Day 12", "value": 3.83}, {"measurement": "Joint inflammation score", "setting": "Lewis rats; table Day 13", "value": 3.16}, {"measurement": "Joint inflammation score", "setting": "Lewis rats; table Day 14", "value": 3.16}, {"measurement": "Joint inflammation score", "setting": "Lewis rats; table Day 15", "value": 2.83}, {"measurement": "Joint inflammation score", "setting": "Lewis rats; table Day 16", "value": 2.83}, {"measurement": "Joint inflammation score", "setting": "Lewis rats; table Day 17", "value": 2.00}, {"measurement": "Joint inflammation score", "setting": "Male HLA-B27 rats [2]; Day 29", "value": 1.5}, {"measurement": "Joint inflammation score", "setting": "Male HLA-B27 rats [2]; Day 30", "value": 0.5}, {"measurement": "Joint inflammation score", "setting": "Male HLA-B27 rats [2]; Day 31", "value": 0.5}, {"measurement": "Joint inflammation score", "setting": "Male HLA-B27 rats [2]; Day 32", "value": 1.25}, {"measurement": "Joint inflammation score", "setting": "Male HLA-B27 rats [2]; Day 33", "value": 2}, {"measurement": "Joint inflammation score", "setting": "Male HLA-B27 rats [2]; Day 34", "value": 2.25}, {"measurement": "Joint inflammation score", "setting": "Male HLA-B27 rats [2]; Day 35", "value": 2}, {"measurement": "Joint inflammation score", "setting": "Male HLA-B27 rats [2]; Day 36", "value": 2.25}, {"measurement": "Joint inflammation score", "setting": "Male HLA-B27 rats [2]; Day 37", "value": 2}, {"measurement": "Joint inflammation score", "setting": "Male HLA-B27 rats [2]; Day 38", "value": 2.75}, {"measurement": "Joint inflammation score", "setting": "Male HLA-B27 rats [2]; Day 39", "value": 2.25}, {"measurement": "Joint inflammation score", "setting": "Male HLA-B27 rats [2]; Day 40", "value": 1.75}, {"measurement": "Joint inflammation score", "setting": "Male HLA-B27 rats [2]; Day 41", "value": 2}, {"measurement": "Joint inflammation score", "setting": "Male HLA-B27 rats [2]; Day 42", "value": 2.5}, {"measurement": "Joint inflammation score", "setting": "Male HLA-B27 rats [2]; Day 43", "value": 4.75}, {"measurement": "Joint inflammation score", "setting": "Male HLA-B27 rats [2]; Day 44", "value": 3}, {"measurement": "Joint inflammation score", "setting": "Male HLA-B27 rats [2]; Day 45", "value": 2.75}, {"measurement": "Joint inflammation score", "setting": "Male HLA-B27 rats [2]; Day 46", "value": 3.25}, {"measurement": "Mankin score (mean ± SD)", "setting": "Male HLA-B27 rats [3]", "value": "3.5 ± 1.8"}, {"measurement": "Synovitis score (mean ± SD)", "setting": "Male HLA-B27 rats [3]", "value": "3.17 ± 0.3"}]}
